Source: patent US20200325453A1, “METHOD FOR PRODUCING NAÏVE PLURIPOTENT STEM CELLS” (priority 2015, published 2020)

Legend:
ESRRB [1] = assay: ESRRB gene expression by qPCR, effect of Forskolin and A83-01 on making naïve (Example 4); format: cell-based, human; conditions: 201B7 cells; 10 μM Forskolin and 0.5 μM A83-01 added to 2iL+Go6983 medium
ESRRB [2] = assay: ESRRB gene expression by qPCR, effect of Go6983 addition timing (Example 3); format: cell-based, human; conditions: 201B7 cells passage 1; KSR 2iLFA medium with Go6983 (5 μM) versus without; doxycycline added; low oxygen
Procedure: The iPS cells gene-introduced and cloned in “1.2 Generation of gene-introduced cell line” were dissociated into single cells by using a dissociation solution and TrypLE™ Select, and seeded in a 6-well plate at 1×10^5 cells/well in which MEF cells had been seeded as feeder. At this time, as a medium, 2iLFA+Go6983 medium shown in Table 1 (hereinafter, also abbreviated as “the medium of the present invention”) was used, and cultured in low oxygen in a state in which doxycycline (1 μg/mL) was further added so as to induce expression of the introduced gene (Passage 1; P1). Note here that on the first day of the start of making naïve, Y27632 (ROCK inhibitor) was added so as to be 10 μM, […]. On day 5 to 7 after the start of making naïve, subculturing was performed. The medium was removed, and then 350 μL of 0.25% Trypsin-EDTA was added in each well to cause reaction for one minute at 37° C. The reaction was stopped by Trypsin Inhibitor, and then 5 mL of medium was added thereto. Pipetting was carried out several times using PIPETTE AID to detach colonies of iPS cells from a sheet of feeder cells. The colonies were collected in a 15-mL tube. After centrifugation, a supernatant was removed, and 200 μL of medium was added, followed by pipetting using P200 […] about 40 times to be dissociated into single cells. […]

| Structure (SMILES) | maintenance of the naïve state of iPS cells after stopping induction of expression of the introduced gene (ESRRB [1]) | expression of ESRRB (ESRRB [2]) |
| --- | --- | --- |
| Cc1cccc(-c2nn(C(=S)Nc3ccccc3)cc2-c2ccnc3ccccc23)n1 [A83-01, 3-(6-methyl-2-pyridinyl)-N-phenyl-4-(4-quinolinyl)-1H-pyrazole-1-carbothioamide] | needed in order to maintain the naïve state of the iPS cells | – |
| COc1ccc2c(c1)c(C1=C(c3c[nH]c4ccccc34)C(=O)NC1=O)cn2CCCN(C)C [Go6983, 3-[1-[3-(dimethylamino)propyl]-5-methoxy-1H-indole-3-yl]-4-(1H-indole-3-yl)-1H-pyrrole-2,5-dione] | – | higher expression of ESRRB |
